Test results published in patent publication US20190160257A1, “METHODS AND SYSTEMS FOR INHIBITING VASCULAR INFLAMMATION” (Mercator MedSystems, Inc., priority 2002, published 2019).
Entries after “also recorded” stand apart in the source; their conditions may differ.

How the values were obtained:
[1] = Distribution of tacrolimus after periadventitial injection in swine coronary arteries, LC/MS of tissue; type: in vivo
Experimental: Distribution of a lipophilic compound (tacrolimus): Eight swine underwent angiography. […] The two remaining arteries served as untreated controls. An untreated heart was used as a negative control. At 48 hours arteries were dissected from the musculature and perivascular fat, cut into 5 mm sections and analyzed by Liquid Chromatography/Mass Spectrometry against tacrolimus calibration standards containing homogenized untreated porcine heart tissue.

[2] = system: patients with atherosclerotic lower extremity occlusive disease of the superficial femoral or popliteal arteries
Source text: Patients with TASC II A, B, and C disease of the superficial femoral and/or popliteal arteries were eligible for this study.
Unique identifier: NCT 01507558). The study design was a prospective, single-center, investigator-initiated study that enrolled consecutive patients who met eligibility requirements from the San Francisco Veteran Affairs Medical Center. This study was approved by the Committee for Human Research and the University of California Clinical and Translational Science Institute. Safety data and outcomes were monitored by a Data Safety and Monitoring Committee that convened on a quarterly basis or as needed.
The primary inclusion criteria were patients suffering from moderate to severe disabling claudication, ischemic rest pain, or minor tissue loss secondary to atherosclerotic lower extremity occlusive disease with TransAtlantic Inter-Society Consensus II […] lesions of the superficial femoral artery (SFA) or popliteal arteries.
The Bullfrog® Micro-Infusion is a rapid-exchange, wire-guided catheter with a balloon-sheathed 0.9-mm-long, 35-gauge (140 μm diameter) needle that delivers infusions to adventitial and perivascular tissues. It is Food and Drug Administration 510(k)-cleared for use in coronary and peripheral arteries. It is advanced through a 6F sheath over a 0.014-inch wire and can treat vessels from 3 to 6 mm in diameter. Three radio-opaque markers on the catheter allow for proper orientation of the needle. Using standard angioplasty inflation equipment, the balloon was inflated exposing the needle. When the balloon contacted the arterial wall opposite the needle tip, contact pressure forced the needle through the vessel wall and into the adventitia and perivascular tissues. The contact pressure of the balloon against the artery wall is limited to 2 atmospheres by a pressure release valve, which prevents damage to the artery wall. A mixture of infusate and contrast (4:1) was then delivered under fluoroscopic guidance into the adventitia. A test injection of 0.1 mL was made to confirm proper adventitial placement of the microinfusion needle tip. If resistance is met, or the test injection enters the blood stream, the balloon was deflated and the injection is attempted in another location by moving the catheter a few millimeters proximally or distally or rotating the catheter a few degrees. Once adventitia placement was confirmed, the remainder of the infusate was delivered at a rate of 1 mL/min. When the infusion was complete, the balloon was deflated, sheathing the needle, and allowing the catheter to be withdrawn. FIG. 12. Injections were administered approximately every 3 cm along the length of the treated arterial segment.
Patients not taking aspirin or clopidogrel before study enrollment received 325 mg of aspirin 12 hours prior the procedure. Postprocedure, patients were prescribed 81 mg/d of aspirin to be taken indefinitely and 75 mg/d of clopidogrel daily for 12 weeks. Vascular access was accomplished by either the contralateral or ipsilateral (anterograde) approach. Patients received a bolus of 5000 IU of heparin after insertion of the sheath in the common femoral artery, and their activated clotting time was kept above 250 seconds with additional heparin as needed. In the case of chronic total occlusions, all lesions were crossed subintimally with a glide wire and glide catheter (Terumo, Somerset, N.J.). After securing access across the lesion with a guidewire, the target lesion was treated according to physician preference. All patients were treated with balloon angioplasty.

[3] = system: patients with superficial femoral or popliteal artery lesions; assay: DANCE Trial: circulating hsCRP and MCP-1 after revascularization with adventitial and perivascular dexamethasone; type: in vivo, human; conditions: baseline and 24 hours, about 1.6 mg per cm of lesion
Experimental: An additional study has enrolled 140 patients in the United States, meeting similar enrollment criteria as those in the 20-patient study described above. In these patients, approximately one-third of them have had blood draws right before a revascularization procedure of their superficial femoral or popliteal artery, and then again at 24±4 hours after their revascularization procedure. Arterial lesions in this study were at least 70% occlusive prior to revascularization and up to 15 cm in length. Revascularization therapy was performed with angioplasty, atherectomy, provisional stenting, or a combination thereof. […] The Schillinger 2002 published research would indicate the likelihood for a substantial rise in the hsCRP after revascularization therapy, and that this rise is linked to the rate of restenosis at 6 months following the revascularization procedure. The data from Schillinger 2002 and the 20-patient study described above (the DANCE-Pilot, in which 15 patients had baseline and 24 hour hsCRP levels examined) are plotted in FIG. 15, along with 41 patients from the larger 139 patient group (the DANCE Trial).
Additional data coming out of the interim analysis of the DANCE study includes the first 9 patients to have MCP-1 analyzed from their circulating blood at baseline and at 24 hours. […]

[4] = system: graft-vein anastomosis and proximal vein of porcine AV grafts; conditions: pig, in vivo
Experimental: Fourteen days after graft implantation, percutaneous transluminal angioplasty (PTA) was performed (7 mm balloon, 16 atmosphere inflation pressure) at two sites per graft: across the graft-vein anastomosis (GVA) and in the proximal vein (PV). […] Infusions of 3 ml were always consistent between the 2 grafts in each animal.

[5] = two injections of 0.5 mL 5% silver nitrate per iliac artery
Source text: The animal was sacrificed according to approved protocol following the last injection. The arteries were removed and placed in 10% formalin without perfusion. 2 mm segments were embedded in paraffin, sectioned, and hematoxylin-eosin stained.

[6] = pig, in vivo
Experimental: Injections were made to depths in the range from 0.8 mm to 1.2 mm One artery was treated intraluminally with 5 mL OGP to determine background vascular uptake. Animals were sacrificed 0.5-23 hr post-procedure following IACUC-approved protocol. After sacrifice, the LAD, RCA and LCx were removed, cut into 4-5 mm sections, which were frozen and cryosectioned. The slides were counter-stained with 0.1% Evan's Blue in PBS (5 min 37 C) to quench autofluorescence, observed with a UV microscope, and scored 0-4+. Representative sections were photographed.

C=CC[C@@H]1/C=C(\C)C[C@H](C)C[C@H](OC)[C@H]2O[C@@](O)(C(=O)C(=O)N3CCCC[C@H]3C(=O)O[C@H](/C(C)=C/[C@@H]3CC[C@@H](O)[C@H](OC)C3)[C@H](C)[C@@H](O)CC1=O)[C@H](C)C[C@@H]2OC [tacrolimus]
segments in which drug was detected ([1]; 48 hours, including side branches and uninjected arteries): 285/293 | subjects with distribution to the entire coronary tree ([1]; periadventitial delivery, higher concentrations at injection sites): 8/8

C[C@@H]1C[C@H]2[C@@H]3CCC4=CC(=O)C=C[C@]4(C)[C@@]3(F)[C@@H](O)C[C@]2(C)[C@@]1(O)C(=O)CO [dexamethasone]
patients with target lesion restenosis ([2]; 6 month follow up, PSV ratio >2.4 or occlusion by ultrasound): two | Rutherford classification scores versus pre-op baseline ([2]; 6 months, all patients but the one with target lesion restenosis): improved | mean Rutherford score ([2]; 6 months, preoperative 3.1±0.71, P<0.00001): 0.5±0.70 | median Rutherford score ([2]; 6 months, preoperative median 3.0): 0 | mean ABI versus baseline ([2]; all time points post procedure, FIG. 14): significantly improved | patients with only partial coverage by contrast distribution (grade=B) ([2]; assessed by fluoroscopy): one | subjects with complete circumferential coverage of the lesion with the infusate (grade=A) ([2]; assessed by fluoroscopy immediately after the infusion): 19 out of 20 subjects | patients with loss of primary patency (duplex ultrasound binary restenosis) ([2]; by 6 months, 20 patients): Two | anticipated rise of hsCRP ([2]; compared with Schillinger 2002): appears to be dampened | patients with target extremity stenosis not within the treated segment ([2]; follow up 381±181 days): Three | ABI measurements ([2]; one-year follow up, N=10, P<0.0001 vs baseline): 1.04±0.21 | PSVR ([2]; one-year follow up, patients without index lesion restenosis, N=8): 1.1±0.6 | CRP at 24 hours following the procedure ([2]; preoperative 6.9±8.5, P=0.14): 14.0 ± 23.1 mg/L | increase of CRP at 24 hours ([2]; versus preoperative, not statistically significant (P=0.14)): 103% | drug or device-related adverse events reported ([2]; within 30 days, acute hyperglycemia in one patient, controlled by insulin): one | effect on hsCRP inflammatory spike after revascularization ([3]; 41 patients, versus Schillinger 2002, FIG. 15): capable of reducing the inflammatory spike | change in circulating MCP-1 ([3]; first 9 patients, FIG. 16): marked drop in MCP-1; also recorded: a drop in MCP-1 | adverse effect compared to placebo in the adventitia [4]: no observable adverse effect

O=[N+]([O-])[O-].[Ag+] [Silver Nitrate]
staining: site of delivery and diffusion [5]: delivery outside the external elastic lamina of the vessels and diffusion around the circumference

Oregon Green® 488 paclitaxel [OGP]
circumferential staining [6]: staining was observed throughout the circumference of the artery
